Test results: patent US12383578B2, “Carbazate-activated polyvinyl alcohol (PVAC) as a polymer-based antitumoral agent” (CREMED AB (PUBL), priority 2019, dated 2025)

Assays:
[1] = tested on: MDA-MB-231 tumor cells; details: mouse, in vivo
Method: Following injection of MDA-MB-231 cells into athymic nude mice the animals were monitored twice weekly recording weight, general health and tumor size. When the average tumor size was approximately 100 μL the animals were stratified into three groups of 12 mice per group based on tumor size. All three groups were subjected to 28 days of twice-weekly intra/peri tumoral injections at a volume of 100 μL per injection. One group served as a control group and received NaCl (vehicle) injections. The remaining two groups received different doses of PVAC, as described above. The animals were euthanized on Day 29 and the tumors were excised, weighed, and divided into two parts handled as described above.

[2] = tested on: GIST-T1 cells; assay: Cell viability assay (CellTiter-Glo, ATP-based); parameters: species or system human; details: biologically relevant concentrations
Method: 0.25×10^4-1×10^4 GIST-T1 cells were seeded into each well in a 96-well plate. PVAC, EC, and PVA were added into each well or vehicle (deionized water) with subsequent incubation for 24 or 48 hours. CellTiter-Glo assay (Promega, MI, USA) is an ATP-based luminometric method that was performed according to protocol. In brief, cells were removed from incubator to allow adjust to room temperature after which 100 μL of room temperature CellTiter-Glo was added to each well. The plates were put on a shaker for 5-10 min. Cells rested for 5-10 min before measurement on an EnVision 2103 Multilabel Reader (Perkin Elmer, MA, USA).

Animals euthanized due to infections [1] | Compound | Cellular viability [2]
four | Poly[1-hydroxyethylene)-ran-(1-hydrazinecarboxylatoethylene)] [PVAC] | 
 | CCOC(=O)NN [EC, ethyl carbazate] | did not reduce cellular viability
